From article PMC4030953, “Pyranose Dehydrogenase from Agaricus campestris and Agaricus xanthoderma: Characterization and Applications in Carbohydrate Conversions” (Biomolecules, 2013)

Experiments:
[1] = biological target: T1, AcPDH (Agaricus campestris, UniProt V5NDL4); test: in-gel flavin fluorescence after SDS-PAGE; type: binding; details: covalent; UV 302 nm
T1 construct: gene pdh1

[2] = biological target: T1, AcPDH; test: spectrophotometric electron acceptor reduction; type: biochemical; details: apparent, 25 mM D-glucose, pH 8.5, 30 °C
Description: spectrophotometric electron acceptor reduction on AcPDH

[3] = biological target: T2, AxPDH (Agaricus xanthodermus, UniProt V5NC32); test: spectrophotometric electron acceptor reduction; type: biochemical; details: apparent, 25 mM D-glucose, pH 8.5, 30 °C
T2 construct: gene pdh1
T2 sequence (V5NC32 26-600): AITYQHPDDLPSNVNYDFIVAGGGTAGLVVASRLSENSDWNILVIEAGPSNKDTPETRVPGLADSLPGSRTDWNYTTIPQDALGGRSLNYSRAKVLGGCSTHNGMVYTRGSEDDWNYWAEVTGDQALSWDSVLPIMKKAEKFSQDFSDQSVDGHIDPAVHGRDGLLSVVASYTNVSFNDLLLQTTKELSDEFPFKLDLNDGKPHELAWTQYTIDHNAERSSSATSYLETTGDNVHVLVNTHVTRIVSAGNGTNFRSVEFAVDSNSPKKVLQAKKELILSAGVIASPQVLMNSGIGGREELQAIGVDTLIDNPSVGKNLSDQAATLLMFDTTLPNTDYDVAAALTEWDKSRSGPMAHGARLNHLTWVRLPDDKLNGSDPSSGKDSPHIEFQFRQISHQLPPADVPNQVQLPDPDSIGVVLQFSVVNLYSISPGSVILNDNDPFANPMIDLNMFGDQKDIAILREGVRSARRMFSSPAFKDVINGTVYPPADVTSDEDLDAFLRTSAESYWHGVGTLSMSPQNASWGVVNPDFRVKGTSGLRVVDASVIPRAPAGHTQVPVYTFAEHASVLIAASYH
Description: spectrophotometric electron acceptor reduction on AxPDH

T1 sequence (V5NDL4 22-595): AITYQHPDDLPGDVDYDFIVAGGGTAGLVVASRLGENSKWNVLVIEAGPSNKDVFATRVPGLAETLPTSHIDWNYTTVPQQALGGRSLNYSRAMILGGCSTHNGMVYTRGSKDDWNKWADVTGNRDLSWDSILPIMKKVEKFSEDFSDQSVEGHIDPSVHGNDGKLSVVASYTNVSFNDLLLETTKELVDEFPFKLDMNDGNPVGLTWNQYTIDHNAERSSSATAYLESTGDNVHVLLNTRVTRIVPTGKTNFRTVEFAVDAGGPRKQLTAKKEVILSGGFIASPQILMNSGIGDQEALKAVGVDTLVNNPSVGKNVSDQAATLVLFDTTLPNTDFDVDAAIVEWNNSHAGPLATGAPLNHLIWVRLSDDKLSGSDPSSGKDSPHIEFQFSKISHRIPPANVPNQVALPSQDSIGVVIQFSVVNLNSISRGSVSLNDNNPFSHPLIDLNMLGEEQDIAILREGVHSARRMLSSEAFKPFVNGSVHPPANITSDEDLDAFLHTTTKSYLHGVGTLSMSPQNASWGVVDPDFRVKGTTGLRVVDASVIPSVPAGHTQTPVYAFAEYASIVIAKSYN

Structure (SMILES)	in-gel flavin fluorescence after SDS-PAGE [1]	Km [2] [µM]	Km [3] [µM]
Cc1cc2nc3c(=O)[nH]c(=O)nc-3n(C[C@H](O)[C@H](O)[C@H](O)COP(=O)(O)OP(=O)(O)OC[C@H]3O[C@@H](n4cnc5c(N)ncnc54)[C@H](O)[C@@H]3O)c2cc1C [FAD]	AcPDH and AxPDH showed a bright band under UV-light	–	–
F[P-](F)(F)(F)(F)F.[Fe+3].c1cc[cH-]c1.c1cc[cH-]c1 [Fc^+PF6]	–	1190 ± 170	30
